By IC50 is commonly meant the point on the concentration scale where inhibition reaches its midpoint.

This note sets out measurements from patent US10301291B2, “Imidazole derivative having JNK inhibitory activity and use thereof” (SAMJIN PHARMACEUTICAL CO., LTD., priority 2016, dated 2019).

The target of this experiment is JNK3 (Homo sapiens (Human), UniProt P53779). Put plainly: Measurement of JNK3 enzyme activity (33P-ATP filter-binding). To be noted: human JNK3, ATP 10 μM, ATF2 3 μM. It counts as biochemical. The method, then: The changes in JNK3 enzyme activity resulting from being treated with the inventive imidazole derivative (Formula 1) shown in a following Table 1 were identified through IC50.
JNK3, sequence (P53779 whole entry): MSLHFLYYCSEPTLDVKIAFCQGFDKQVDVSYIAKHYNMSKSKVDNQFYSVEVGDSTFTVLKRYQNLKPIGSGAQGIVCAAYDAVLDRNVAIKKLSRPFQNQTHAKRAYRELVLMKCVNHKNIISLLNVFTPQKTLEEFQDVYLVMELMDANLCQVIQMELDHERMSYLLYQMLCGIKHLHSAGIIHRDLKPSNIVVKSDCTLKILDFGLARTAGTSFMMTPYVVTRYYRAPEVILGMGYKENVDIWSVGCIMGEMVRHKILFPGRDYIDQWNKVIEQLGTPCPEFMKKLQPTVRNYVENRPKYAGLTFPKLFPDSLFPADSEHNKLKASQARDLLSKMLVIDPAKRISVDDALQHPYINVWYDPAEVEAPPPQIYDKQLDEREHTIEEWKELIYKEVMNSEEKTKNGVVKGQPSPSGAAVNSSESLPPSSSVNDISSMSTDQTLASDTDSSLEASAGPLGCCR
First of all, after a substrate was inserted into a prepared base reaction buffer solution (20 mM Hepes ([…]), 10 mM MgCl2, 1 mM EGTA, 0.02% Brij35, 0.02 mg/ml BSA, 0.1 mM Na3VO4, 2 mM DTT, 1% DMSO), a human JNK3 enzyme was added into a prepared substrate solution and then mixed together. As the substrate, ATP (10 μM) and ATF2 (3 μM) were used, among which the ATP was also used as a common substrate. Then, compounds of Examples 1-18 and 25-36, which were dissolved in 100% DMSO, were inserted into an enzyme reaction solution, and then cultured at room temperature for 20 minutes. Then, ^33P-ATP was inserted into the above reaction mixture solution to initiate a reaction, then cultured at room temperature for 2 hours, and then an enzyme activity was detected by means of a filter-binding method.
Particularly, after each 25 μl of the resulting solution was slowly spotted on P81 paper, it was inserted into a scintillation vial, and washed with 0.75% phosphoric acid four times for 10 minutes each, and with acetone once for 5 minutes. 5 ml of scintillation cocktail was inserted into the above scintillation vial and a resulting signal was read by means of a scintillation counter.
IC50 values of compounds of Examples 1-18 and 25-36 with regard to JNK3 enzyme activity were shown in a following Table 2.
Regarding `N#CCc1cnc(-c2ccc3c(c2)OCO3)n1-c1ccnc(NC2CCOCC2)n1` [Example 1, 2-(2-(benzo[d][1,3]dioxol-5-yl)-1-(2-(tetrahydro-2H-pyran-4-ylamino)pyrimidine-4-yl)-1H-imidazole-5-yl)acetonitrile], the IC50 lay in the range of 30 to 100 nM.
Regarding `N#CCc1cnc(-c2ccc3c(c2)OCCO3)n1-c1ccnc(NC2CCOCC2)n1` [Example 2, 2-(2-(2,3-dihydrobenzo[b][1,4]dioxin-6-yl)-1-(2-(tetrahydro-2H-pyran-4-ylamino)pyrimidine-4-yl)-1H-imidazole-5-yl)acetonitrile], the IC50 is above 100 nM.
The same measure for `N#CCc1cnc(-c2ccc3ccccc3n2)n1-c1ccnc(NC2CCOCC2)n1` [Example 3, 2-(2-(quinoline-2-yl)-1-(2-(tetrahydro-2H-pyran-4-ylamino)pyrimidine-4-yl)-1H-imidazole-5-yl) acetonitrile]: 30 to 100 nM; for `N#CCc1cnc(-c2ccc3ccccc3c2)n1-c1ccnc(NC2CCOCC2)n1` [Example 4, 2-(2-(naphthalene-2-yl)-1-(2-(tetrahydro-2H-pyran-4-ylamino)pyrimidine-4-yl)-1H-imidazole-5-yl)acetonitrile]: below 30 nM.
Under `N#CCc1cnc(-c2ccc(Cl)c(Cl)c2)n1-c1ccnc(NC2CCOCC2)n1` [Example 5, 2-(2-(3,4-dichlorophenyl)-1-(2-(tetrahydro-2H-pyran-4-ylamino)pyrimidine-4-yl)-1H-imidazole-5-yl)acetonitrile] stands 30 to 100 nM.
In the case of `N#CCc1cnc(-c2ccc(F)c(C(F)(F)F)c2)n1-c1ccnc(NC2CCOCC2)n1` [Example 6, 2-(2-(4-fluoro-3-(trifluoromethyl)phenyl)-1-(2-(tetrahydro-2H-pyran-4-ylamino)pyrimidine-4-yl)-1H-imidazole-5-yl)acetonitrile], the IC50 is 30 to 100 nM.
The same measure for `N#CCc1cnc(-c2ccc3c(c2)OCO3)n1-c1ccnc(NC2CCCCC2)n1` [Example 7, 2-(2-(benzo[d][1,3]dioxol-5-yl)-1-(2-(cyclohexylamino)pyrimidine-4-yl)-1H-imidazole-5-yl)acetonitrile]: above 100 nM; for `N#CCc1cnc(-c2ccc3c(c2)OCCO3)n1-c1ccnc(NC2CCCCC2)n1` [Example 8, 2-(1-(2-(cyclohexylamino)pyrimidine-4-yl)-2-(2,3-dihydrobenzo[b][1,4]dioxin-6-yl)-1H-imidazole-5-yl)acetonitrile]: above 100 nM.
The same measure for `N#CCc1cnc(-c2ccc3ccccc3n2)n1-c1ccnc(NC2CCCCC2)n1` [Example 9, 2-(1-(2-(cyclohexylamino)pyrimidine-4-yl)-2-(quinoline-2-yl)-1H-imidazole-5-yl)acetonitrile]: above 100 nM.
The same measure for `N#CCc1cnc(-c2ccc3ccccc3c2)n1-c1ccnc(NC2CCCCC2)n1` [Example 10, 2-(1-(2-(cyclohexylamino)pyrimidine-4-yl)-2-(naphthalene-2-yl)-1H-imidazole-5-yl)acetonitrile]: 30 to 100 nM.
Turning to `N#CCc1cnc(-c2ccc(Cl)c(Cl)c2)n1-c1ccnc(NC2CCCCC2)n1` [Example 11, 2-(1-(2-(cyclohexylamino)pyrimidine-4-yl)-2-(3,4-dichlorophenphenyl)-1H-imidazole-5-yl)acetonitrile], the IC50 was 30 to 100 nM.
As for `N#CCc1cnc(-c2ccc(F)c(C(F)(F)F)c2)n1-c1ccnc(NC2CCCCC2)n1` [Example 12, 2-(1-(2-(cyclohexylamino)pyrimidine-4-yl)-2-(4-fluoro-3-(trifluoromethyl)phenyl)-1H-imidazole-5-yl)acetonitrile], the IC50 is above 100 nM.
The same measure for `CC(O)CNc1nccc(-n2c(CC#N)cnc2-c2ccc3c(c2)OCO3)n1` (stereo not drawn) [Example 13, 2-(2-(benzo[d][1,3]dioxol-5-yl)-1-(2-(2-hydroxypropylamino)pyrimidine-4-yl)-1H-imidazole-5-yl)acetonitrile]: 30 to 100 nM; for `CC(O)CNc1nccc(-n2c(CC#N)cnc2-c2ccc3c(c2)OCCO3)n1` (stereo not drawn) [Example 14, 2-(2-(2,3-dihydrobenzo[b][1,4]dioxin-6-yl)-1-(2-(2-hydroxypropylamino)pyrimidine-4-yl)-1H-imidazole-5-yl)acetonitrile]: 30 to 100 nM.
`CC(O)CNc1nccc(-n2c(CC#N)cnc2-c2ccc3ccccc3n2)n1` (stereo not drawn) [Example 15, 2-(1-(2-(2-hydroxypropylamino)pyrimidine-4-yl)-2-(quinoline-2-yl)-1H-imidazole-5-yl)acetonitrile] yielded an IC50 of 30 to 100 nM.
The compound `CC(O)CNc1nccc(-n2c(CC#N)cnc2-c2ccc3ccccc3c2)n1` (stereo not drawn) [Example 16, 2-(1-(2-(2-hydroxypropylamino)pyrimidine-4-yl)-2-(naphthalene-2-yl)-1H-imidazole-5-yl)acetonitrile] gave an IC50 of 30 to 100 nM.
The same measure for `CC(O)CNc1nccc(-n2c(CC#N)cnc2-c2ccc(Cl)c(Cl)c2)n1` (stereo not drawn) [Example 17, 2-(2-(3,4-dichlorophenyl)-1-(2-(2-hydroxypropylamino)pyrimidine-4-yl)-1H-imidazole-5-yl)acetonitrile]: 30 to 100 nM.
The same measure for `CC(O)CNc1nccc(-n2c(CC#N)cnc2-c2ccc(F)c(C(F)(F)F)c2)n1` (stereo not drawn) [Example 18, 2-(2-(4-fluoro-3-(trifluoromethyl)phenyl)-1-(2-(2-hydroxypropylamino)pyrimidine-4-yl)-1H-imidazole-5-yl)acetonitrile]: 30 to 100 nM.
The same measure for `N#CCc1cnc(-c2ccc3c(c2)OCO3)n1-c1ccnc(NC2CCCNC2)n1` (stereo not drawn) [Example 25, 2-(2-(benzo[d][1,3]dioxol-5-yl)-1-(2-(piperidine-3-ylamino)pyrimidine-4-yl)-1H-imidazole-5-yl) acetonitrile]: above 100 nM; for `N#CCc1cnc(-c2ccc3c(c2)OCCO3)n1-c1ccnc(NC2CCCNC2)n1` (stereo not drawn) [Example 26, 2-(2-(2,3-dihydrobenzo[b][1,4]dioxin-6-yl)-1-(2-(piperidine-3-ylamino)pyrimidine-4-yl)-1H-imidazole-5-yl)acetonitrile]: 30 to 100 nM; for `N#CCc1cnc(-c2ccc3ccccc3n2)n1-c1ccnc(NC2CCCNC2)n1` (stereo not drawn) [Example 27, 2-(1-(2-(piperidine-3-ylamino)pyrimidine-4-yl)-2-(quinoline-2-yl)-1H-imidazole-5-yl)acetonitrile]: 30 to 100 nM.
In the case of `N#CCc1cnc(-c2ccc3ccccc3c2)n1-c1ccnc(NC2CCCNC2)n1` (stereo not drawn) [Example 28, 2-(2-(naphthalene-2-yl)-1-(2-(piperidine-3-ylamino)pyrimidine-4-yl)-1H-imidazole-5-yl)acetonitrile], the IC50 was below 30 nM.
`N#CCc1cnc(-c2ccc(Cl)c(Cl)c2)n1-c1ccnc(NC2CCCNC2)n1` (stereo not drawn) [Example 29, 2-(2-(3,4-dichlorophenyl)-1-(2-(piperidine-3-ylamino)pyrimidine-4-yl)-1H-imidazole-5-yl)acetonitrile] registered an IC50 of 30 to 100 nM.
Regarding `N#CCc1cnc(-c2ccc(F)c(C(F)(F)F)c2)n1-c1ccnc(NC2CCCNC2)n1` (stereo not drawn) [Example 30, 2-(2-(4-fluoro-3-(trifluoromethyl)phenyl)-1-(2-(piperidine-3-ylamino)pyrimidine-4-yl)-1H-imidazole-5-yl)acetonitrile], the IC50 was in the range of 30 to 100 nM.
As for `N#CCc1cnc(-c2ccc3c(c2)OCO3)n1-c1ccnc(NC2CCCN(C(=O)C3CC3)C2)n1` (stereo not drawn) [Example 31, 2-(2-(benzo[d][1,3]dioxol-5-yl)-1-(2-(1-(cyclopropanecarbonyl)piperidine-3-ylamino)pyrimidine-4-yl)-1H-imidazole-5-yl)acetonitrile], the IC50 lay within 30 to 100 nM.
As for `N#CCc1cnc(-c2ccc3c(c2)OCCO3)n1-c1ccnc(NC2CCCN(C(=O)C3CC3)C2)n1` (stereo not drawn) [Example 32, 2-(1-(2-(1-(cyclopropanecarbonyl)piperidine-3-ylamino)pyrimidine-4-yl)-2-(2,3-dihydrobenzo[b][1,4]dioxin-6-yl)-1H-imidazole-5-yl)acetonitrile], the IC50 lay in the range of 30 to 100 nM.
`N#CCc1cnc(-c2ccc3ccccc3n2)n1-c1ccnc(NC2CCCN(C(=O)C3CC3)C2)n1` (stereo not drawn) [Example 33, 2-(1-(2-(1-(cyclopropanecarbonyl)piperidine-3-ylamino)pyrimidine-4-yl)-2-(quinoline-2-yl)-1H-imidazole-5-yl)acetonitrile] showed an IC50 below 30 nM.
The compound `N#CCc1cnc(-c2ccc(Cl)c(Cl)c2)n1-c1ccnc(NC2CCCN(C(=O)C3CC3)C2)n1` (stereo not drawn) [Example 35, 2-(1-(2-(1-(cyclopropanecarbonyl)piperidine-3-ylamino)pyrimidine-4-yl)-2-(3,4-dichlorophenyl)-1H-imidazole-5-yl)acetonitrile] gave an IC50 of 30 to 100 nM.
As for `N#CCc1cnc(-c2ccc(F)c(C(F)(F)F)c2)n1-c1ccnc(NC2CCCN(C(=O)C3CC3)C2)n1` (stereo not drawn) [Example 36, 2-(1-(2-(1-(cyclopropanecarbonyl)piperidine-3-ylamino)pyrimidine-4-yl)-2-(4-fluoro-3-(trifluoromethyl)phenyl)-1H-imidazole-5-yl)acetonitrile], the IC50 was 30 to 100 nM.
The same measure for `N#CCc1cnc(-c2ccc3occc3c2)n1-c1ccnc(NC2CCCN(C(=O)C3CC3)C2)n1` (stereo not drawn) [Example 37]: below 30 nM.
